Measured values reported in ChEMBL document CHEMBL3885881, “DrugMatrix”.

Species on record: Rattus norvegicus
Test: DrugMatrix - Regimen: Daily Repeat
Assay type: toxicity, organism-based, Sprague-Dawley
Set-up: regimen Daily Repeat, gender Male, age 6-8 weeks
Settings: in vivo, po, route oral GAVAGE, […]; for ABSOLUTE BASOPHIL / ABSOLUTE EOSINOPHIL / ABSOLUTE LYMPHOCYTE / ABSOLUTE MONOCYTE / ABSOLUTE SEGMENTED NEUTROPHIL / BASOPHIL / EOSINOPHIL / ERYTHROCYTE COUNT / HEMATOCRIT / HEMOGLOBIN / LEUKOCYTE COUNT / LYMPHOCYTE / MEAN CORPUSCULAR HEMOGLOBIN / MEAN CORPUSCULAR HEMOGLOBIN CONCENTRATION / MEAN CORPUSCULAR VOLUME / MONOCYTE / NEUTROPHIL / NUCLEATED RED BLOOD CELLS / PLATELET COUNT: tissue Blood; for ALANINE AMINOTRANSFERASE / ALBUMIN / ALKALINE PHOSPHATASE / ASPARTATE AMINOTRANSFERASE / BLOOD UREA NITROGEN / CARBON DIOXIDE / CHLORIDE / CHOLESTEROL / CREATINE PHOSPHOKINASE / CREATININE / GLUCOSE / LACTATE DEHYDROGENASE / LIPASE / PHOSPHORUS / POTASSIUM / SODIUM / TOTAL BILIRUBIN / TOTAL PROTEIN / URIC ACID: tissue Plasma
[1] = 0 mg/kg, 72 h, dose level Control, time 3 day
[2] = 0 mg/kg, 120 h, dose level Control, time 5 day
[3] = 5 mg/kg, 72 h, dose level Low, time 3 day

CC(C)n1c(/C=C/C(O)CC(O)CC(=O)O)c(-c2ccc(F)cc2)c2ccccc21 (centres undefined) [FLUVASTATIN]
ABSOLUTE BASOPHIL [1]: 0 CELLS/uL | ABSOLUTE EOSINOPHIL [1]: 33 CELLS/uL | ABSOLUTE LYMPHOCYTE [1]: 9048.5 CELLS/uL | ABSOLUTE MONOCYTE [1]: 80.17 CELLS/uL | ABSOLUTE SEGMENTED NEUTROPHIL [1]: 1521.67 CELLS/uL | BASOPHIL [1]: 0% | EOSINOPHIL [1]: 0.17% | ERYTHROCYTE COUNT [1]: 5.46 x10E6/uL | HEMATOCRIT [1]: 32.87% | HEMOGLOBIN [1]: 12.95 G/DL | LEUKOCYTE COUNT [1]: 10.68 x10E3/uL | LYMPHOCYTE [1]: 86.67% | MEAN CORPUSCULAR HEMOGLOBIN [1]: 23.72 pg | MEAN CORPUSCULAR HEMOGLOBIN CONCENTRATION [1]: 39.4 G/DL | MEAN CORPUSCULAR VOLUME [1]: 60.18 fL | MONOCYTE [1]: 0.83% | NEUTROPHIL [1]: 12.33% | NUCLEATED RED BLOOD CELLS [1]: 0 /100WBC | PLATELET COUNT [1]: 1211.33 x10E3/uL | ALANINE AMINOTRANSFERASE [1]: 76.67 u/L | ALBUMIN [1]: 3.93 G/DL | ALKALINE PHOSPHATASE [1]: 317.17 u/L | ASPARTATE AMINOTRANSFERASE [1]: 81.17 u/L | BLOOD UREA NITROGEN [1]: 12.33 mg/dL | CARBON DIOXIDE [1]: 31.17 mmol/L | CHLORIDE [1]: 98.33 MEQ/L | CHOLESTEROL [1]: 67.17 mg/dL | CREATINE PHOSPHOKINASE [1]: 312.33 u/L | CREATININE [1]: 0.19 mg/dL | GLUCOSE [1]: 165.5 mg/dL | LACTATE DEHYDROGENASE [1]: 94.5 u/L | LIPASE [1]: 9.83 u/L | PHOSPHORUS [1]: 10.1 mg/dL | POTASSIUM [1]: 5.16 MEQ/L | SODIUM [1]: 143.02 MEQ/L | TOTAL BILIRUBIN [1]: 0.2 mg/dL | TOTAL PROTEIN [1]: 5.88 G/DL | URIC ACID [1]: 0.68 mg/dL | ABSOLUTE BASOPHIL [2]: 0 CELLS/uL | ABSOLUTE EOSINOPHIL [2]: 14.67 CELLS/uL | ABSOLUTE LYMPHOCYTE [2]: 9629.83 CELLS/uL | ABSOLUTE MONOCYTE [2]: 72.5 CELLS/uL | ABSOLUTE SEGMENTED NEUTROPHIL [2]: 1049.67 CELLS/uL | BASOPHIL [2]: 0% | EOSINOPHIL [2]: 0.17% | ERYTHROCYTE COUNT [2]: 5.36 x10E6/uL | HEMATOCRIT [2]: 33.82% | HEMOGLOBIN [2]: 13.48 G/DL | LEUKOCYTE COUNT [2]: 10.77 x10E3/uL | LYMPHOCYTE [2]: 90.17% | MEAN CORPUSCULAR HEMOGLOBIN [2]: 25.28 pg | MEAN CORPUSCULAR HEMOGLOBIN CONCENTRATION [2]: 39.92 G/DL | MEAN CORPUSCULAR VOLUME [2]: 63.3 fL | MONOCYTE [2]: 0.67% | NEUTROPHIL [2]: 9% | NUCLEATED RED BLOOD CELLS [2]: 0.17 /100WBC | PLATELET COUNT [2]: 1275.33 x10E3/uL | ALANINE AMINOTRANSFERASE [2]: 93.67 u/L | ALBUMIN [2]: 4.17 G/DL | ALKALINE PHOSPHATASE [2]: 402.5 u/L | ASPARTATE AMINOTRANSFERASE [2]: 122.83 u/L | BLOOD UREA NITROGEN [2]: 14.75 mg/dL | CARBON DIOXIDE [2]: 26.4 mmol/L | CHLORIDE [2]: 98.5 MEQ/L | CHOLESTEROL [2]: 57.5 mg/dL | CREATINE PHOSPHOKINASE [2]: 305.17 u/L | CREATININE [2]: 0.21 mg/dL | GLUCOSE [2]: 142 mg/dL | LACTATE DEHYDROGENASE [2]: 83.5 u/L | LIPASE [2]: 85.83 u/L | PHOSPHORUS [2]: 8.18 mg/dL | POTASSIUM [2]: 5.46 MEQ/L | SODIUM [2]: 144 MEQ/L | TOTAL BILIRUBIN [2]: 0.25 mg/dL | TOTAL PROTEIN [2]: 5.63 G/DL | URIC ACID [2]: 0.8 mg/dL | ABSOLUTE BASOPHIL [3]: 0 CELLS/uL | ABSOLUTE EOSINOPHIL [3]: 0 CELLS/uL | ABSOLUTE LYMPHOCYTE [3]: 7777.67 CELLS/uL | ABSOLUTE MONOCYTE [3]: 91 CELLS/uL | ABSOLUTE SEGMENTED NEUTROPHIL [3]: 864.67 CELLS/uL | BASOPHIL [3]: 0% | EOSINOPHIL [3]: 0% | ERYTHROCYTE COUNT [3]: 5.27 x10E6/uL | HEMATOCRIT [3]: 32.97% | HEMOGLOBIN [3]: 13.1 G/DL | LEUKOCYTE COUNT [3]: 8.73 x10E3/uL | LYMPHOCYTE [3]: 89% | MEAN CORPUSCULAR HEMOGLOBIN [3]: 24.87 pg | MEAN CORPUSCULAR HEMOGLOBIN CONCENTRATION [3]: 39.77 G/DL | MEAN CORPUSCULAR VOLUME [3]: 62.47 fL | MONOCYTE [3]: 1% | NEUTROPHIL [3]: 10% | NUCLEATED RED BLOOD CELLS [3]: 0 /100WBC | PLATELET COUNT [3]: 1163 x10E3/uL | ALANINE AMINOTRANSFERASE [3]: 67 u/L | ALBUMIN [3]: 3.93 G/DL | ALKALINE PHOSPHATASE [3]: 305.67 u/L | ASPARTATE AMINOTRANSFERASE [3]: 95.33 u/L | BLOOD UREA NITROGEN [3]: 12 mg/dL | CARBON DIOXIDE [3]: 30.67 mmol/L | CHLORIDE [3]: 98 MEQ/L | CHOLESTEROL [3]: 76 mg/dL | CREATINE PHOSPHOKINASE [3]: 453.67 u/L | CREATININE [3]: 0.18 mg/dL | GLUCOSE [3]: 193.33 mg/dL | LACTATE DEHYDROGENASE [3]: 209.33 u/L | LIPASE [3]: 9.67 u/L | PHOSPHORUS [3]: 10.07 mg/dL | POTASSIUM [3]: 5.48 MEQ/L | SODIUM [3]: 142.9 MEQ/L | TOTAL BILIRUBIN [3]: 0.2 mg/dL | TOTAL PROTEIN [3]: 5.8 G/DL | URIC ACID [3]: 0.63 mg/dL
